# Data as given in patent US20120225054A1, “USE OF LEGUME EXTRACTS FOR INDUCING AND ENHANCING AUTOPHAGY AND APOPTOSIS AND FOR PREVENTING AND/OR TREATING CANCERS” (HERBAL BON BIOTECH INC., priority 2011, published 2012).
# How the values were obtained:
# human HCC Hep 3B cells = test: Flow cytometric analysis of apoptotic cells with autophagy inhibitor, Hep 3B; assay type: cell-based; details: 10 mM 3-MA pretreatment 2 h, SC-1 265 μg/ml
# Experimental: (§1) Cells (2×10^5) grown in 6-well plates were pretreated with or without 10 mM of autophagy inhibitor 3-methyladenine (3-MA; Sigma, St. Louis, Mo.) for 2 h prior to the addition of SC-1 (265 μg/ml). The cells were harvested, centrifuged at 800g for 10 min at 4° C., and resuspended in HBS containing 40 μg/ml of propidium iodide and […] RNase A for 30 min at 37° C. in the dark. Measurement of apoptotic cells was performed using a FACScan flow cytometer (Becton Dickison, Mountain View, Calif., USA).
# To confirm the importance of autophagy in the proceeding of apoptosis, autophagy inhibitor 3-MA was added to the cell culture and the relative portion of apoptotic cells was analyzed by flow cytometry. […] In FIG. 5B, it inhibited the fermented soybean extracts-induced apoptosis of Hep 3B cells approximately 42% at 48 h and 60% at 72 h. Therefore, it would not be surprised that the induction of apoptosis was observed only in combination with autophagy in tumors obtained from the mice received the fermented soybean extracts for a relatively long period of time (FIGS. 4A and B).
# [1] = system: murine hepatoma ML-1 cells; test: Flow cytometric analysis of apoptotic cells with autophagy inhibitor, ML-1; assay type: cell-based; details: 10 mM 3-MA pretreatment 2 h, SC-1 265 μg/ml
# Experimental: Murine ML-1 cells obtained from Dr. Huan-Yao Lei (Department of Microbiology and Immunology, Medical College, National Cheng Kung University, Tainan, Taiwan) were cultured in complete Dulbecco's modified Eagle medium (DMEM; GIBCO BRL, Grand Island, N.Y.) containing 10% fetal bovine serum (GIBCO BRL), 2 mM glutamine (Sigma, St. Louis, Mo.), 100 U/ml penicillin (Sigma), and 100 μg/ml streptomycin (Sigma) at 37° C. in a 5% CO2 humidified atmosphere.
# as §1
# To confirm the importance of autophagy in the proceeding of apoptosis, autophagy inhibitor 3-MA was added to the cell culture and the relative portion of apoptotic cells was analyzed by flow cytometry. […] In FIG. 5B, it inhibited the fermented soybean extracts-induced apoptosis of Hep 3B cells approximately 42% at 48 h and 60% at 72 h. […]
smiles,measurement,setting,value
"Cn1cnc(N)c2ncnc1-2 [3-MA, 3-methyladenine]",inhibition of fermented soybean extracts-induced apoptosis,human HCC Hep 3B cells; 48 h,approximately 42%
same,inhibition of fermented soybean extracts-induced apoptosis,human HCC Hep 3B cells; 72 h,~60%
same,inhibition of fermented soybean extracts-induced apoptosis,[1]; 48 h,approximately 45%
same,inhibition of fermented soybean extracts-induced apoptosis,[1]; 72 h,~52%
